System: oxidized collagen IV
Experiment: Binding to H2O2 treated collagen IV (decrease in <5 kDa filtrate by LCMS)
Set-up: species or system human
Conditions: for Binding to collagen, result in words: oxidized forms of collagen
Method: Collagen source: 1 mg/ml Collagen IV form human placenta in 0.25% acetic acid (Sigma™). The collagen was oxidixed with 500 μM H2O2 in 1×PBS for 1 hour at 37° C. The oxidized collagen IV (final=0.2 mg/ml) was then incubated with 2 μM DA-DKP or 2 μM NAT in PBS for 1 hour at 37° C. At the end of the incubation, the <5 kDa fraction was isolated by a VIVASPIN® 2 microcentrifugal filter having a molecular weight cutoff of 5,000. The <5 kDa fraction was analyzed for DA-DKP and/or NAT content using a liquid chromatograph-mass spectrometery (LCMS) method for DA-DKP analysis.

| Structure (SMILES) | Average % decrease (2 μM, oxidized collagen IV 0.2 mg/ml, 1 hour at 37° C., alone) | Binding to collagen, result in words |
| --- | --- | --- |
| C[C@@H]1NC(=O)[C@H](CC(=O)O)NC1=O [DA-DKP, aspartyl-alanyl diketopiperazine] | 26.0% | bind to oxidized forms of collagen |
| CC(=O)N[C@@H](Cc1c[nH]c2ccccc12)C(=O)O [NAT, N-acetyl-tryptophan] | – | bind to oxidized forms of collagen |

— patent US9060968B2, “Treatment of degenerative joint disease” (AMPIO PHARMACEUTICALS, INC., priority 2011, dated 2015)
